# Reference: patent US20030138864A1, “Method for identifying an enzyme to design anti-cancer compounds” (priority 2001, published 2003)
# Counter-ions that a name gives are not always drawn. Like-named read-outs stand apart in the source and are kept apart here.
# Assays:
# Format in all cases: cell-based
# [1] = system: HCT116: human colon cancer cell line; test: Growth inhibition (cytotoxicity, WST-8) of HCT116 cells expressing only a low level of microsomal dipeptidase
# Procedure: The activation of the compounds is mediated by microsomal dipeptidase. The inhibitory activities of the compounds is determined against growth of the cells expressing a low level of microsomal dipeptidase, those expressing a high level of microsomal dipeptidase, and granulocyte progenitors that are expanded ex vivo. […] A stable transfectant, HCT116/S5, into which the human microsomal dipeptidase cDNA (herafter called MDP) connected to the CMV promoter was transfected, is used as the cells expressing a high level of microsomal dipeptidase. […] HCT116, HCT116/S5, and granulocyte porogenitors are cultured in the absence and presence of the drugs. […] The IC50 values are determined and compared among HCT116, HCT116/S5, and granulocyte porogenitors.
# Transfection of the DNA was carried out by using TransIT-LT2 (PanVera, Madison, USA, Calatog No. MIR2320) according to the manufacturer's instruction. […] The cells that grew in the presence of 1 mg/ml G418 were collected and cultivated in MaCoy5A medium.
# By using 96-multi well plates, approximately 2×10^3 cells per well of the HCT116 bearing pRC/CMV and HCT116S5 carrying pRC/CMV-MDP were cultured in 200 μl of McCoy5A medium supplemented with 10% FBS in the presence or absence of the indicated concentrations of the drugs at 37° C. under 5% CO2 in humidified air. The cells were exposed to drugs for 24 hr (taxol, camptothecins and their prodrugs) or 96 hr (DMDC and its compounds). When the drug exposure time to the cells was 24 hr, culture medium containing drugs were removed, and the cells were washed and suspended in the fresh medium without drugs and further cultured at 37° C. under 5% CO2 in humidified air for the indicated days. […] To examine the effects of drugs on granulocyte progenitors, the granulocyte progenitors, which were expanded on a monolayer of MS-5 for 7 days, were collected and washed with RPMI1640 medium. Approximately 5000 cells were suspended in 200 μl of RPMI medium supplemented with 10% FBS and 50 ng/ml of G-CSF in the presence or absence of drugs and cultured in the presence of drugs for 24 hr (taxol, camptothecins and their prodrugs) or 7 days (DMDC and its prodrug) at 37° C. under 5% CO2 in humidified air. When the exposure time of drugs to the cells was 24 hr, the drugs were removed at 24 hr after addition of drugs by washing the cells with the above medium, and the cells were further cultured for 6 days in the same medium without drugs.
# [2] = system: HCT116/S5: HCT116 transfected with the human microsomal dipeptidase cDNA; test: Growth inhibition (cytotoxicity, WST-8) of HCT116/S5 cells expressing a high level of microsomal dipeptidase
# Procedure: (§1) The activation of the compounds is mediated by microsomal dipeptidase. The inhibitory activities of the compounds is determined against growth of the cells expressing a low level of microsomal dipeptidase, those expressing a high level of microsomal dipeptidase, and granulocyte progenitors that are expanded ex vivo. The human colon cancer cell line, HCT116 (American Type Culture Collection No. CCL-247), and granulocyte progenitors are used as the cells expressing only a low level of microsomal dipeptidase. A stable transfectant, HCT116/S5, into which the human microsomal dipeptidase cDNA (herafter called MDP) connected to the CMV promoter was transfected, is used as the cells expressing a high level of microsomal dipeptidase. The dipeptidase cDNA (Satoh et al. Biotechnol. Prog. 10 (2), 134-140 (1994)) and other references) and the cloning procedures as mentioned are known in the art. HCT116, HCT116/S5, and granulocyte porogenitors are cultured in the absence and presence of the drugs. […] The IC50 values are determined and compared among HCT116, HCT116/S5, and granulocyte porogenitors. Although time duration of the exposure of the cells to the drugs varies depending on the cells and drugs, it can be 24 hr, 96 or 168 hr.
# Transfection of the DNA was carried out by using TransIT-LT2 (PanVera, Madison, USA, Calatog No. MIR2320) according to the manufacturer's instruction. The resulting transfectants were cultivated in MaCoy5A medium (Sigma, St Louis, USA, Catalog No. M8403) supplemented with 10% (v/v) fetal bovine serum and 1 mg/ml of geneticin disulfate (Wako, Osaka, Japan, Catalog No. 535-24624). The cells that grew in the presence of 1 mg/ml G418 were collected and cultivated in MaCoy5A medium.
# By using 96-multi well plates, approximately 2×10^3 cells per well of the HCT116 bearing pRC/CMV and HCT116S5 carrying pRC/CMV-MDP were cultured in 200 μl of McCoy5A medium supplemented with 10% FBS in the presence or absence of the indicated concentrations of the drugs at 37° C. under 5% CO2 in humidified air. The cells were exposed to drugs for 24 hr (taxol, camptothecins and their prodrugs) or 96 hr (DMDC and its compounds). When the drug exposure time to the cells was 24 hr, culture medium containing drugs were removed, and the cells were washed and suspended in the fresh medium without drugs and further cultured at 37° C. under 5% CO2 in humidified air for the indicated days. Then, 10 μl of WST-8 (Cell Counting Kit-8, Wako, Osaka, Japan, Catalog No.343-07623) were added to the cultures, and the cells were further incubated at 37° C. for 1 or 2 hr. Cell growth inhibition was calculated as IC50 values according to optical densities at 450 nm and at 655 nm. To examine the effects of drugs on granulocyte progenitors, the granulocyte progenitors, which were expanded on a monolayer of MS-5 for 7 days, were collected and washed with RPMI1640 medium. Approximately 5000 cells were suspended in 200 μl of RPMI medium supplemented with 10% FBS and 50 ng/ml of G-CSF in the presence or absence of drugs and cultured in the presence of drugs for 24 hr (taxol, camptothecins and their prodrugs) or 7 days (DMDC and its prodrug) at 37° C. under 5% CO2 in humidified air. When the exposure time of drugs to the cells was 24 hr, the drugs were removed at 24 hr after addition of drugs by washing the cells with the above medium, and the cells were further cultured for 6 days in the same medium without drugs. Therafter, 20 μl of WST-1 (Roche Diagnostics, Mannheim, Germany, Catalog No. 1644807) were added to the cultures, and the cells were further incubated at 37° C. for 6 hr. Cell growth inhibition was calculated as IC50 values according to optical densities at 450 nm and at 655 nm.
# [3] = system: CFU-GM: human bematopoietic progenitor cells; test: Growth inhibition (cytotoxicity, WST-1) of granulocyte progenitors expanded ex vivo (CFU-GM)
# Procedure: as §1
# CD34-positive mononuclear cells derived from the human umbilical cord blood and bone marrow (Veritas Co, Tokyo, Japan, Catalog No.CB009F, ABM019F) were cultured on a confluent monolayer of MS5 (Itoh, K., et al. Reproducible establishment of hematopoietic supportive stromal cells from murine bone marrow. Exp. Hematol. 17, 145-153 (1989)). Mouse stromal cell lines in alpha MEM medium (Life Technologies, Gaithersburg, USA, Catalog No.12571-0063) supplemented with 10% (v/v) horse serum (HS) (Stem Cell Technologies, Vancouver, Canada, Catalog No. 06750), 10% (v/v) fetal bovine serum (FBS) (Stem Cell Technologies, Vancouver, Canada, Catalog No.06450), 50 ng/ml Flt3 ligand (PeproTec EC., London, UK., Catalog No. 300-19), 100 ng/ml SCF (PeproTech EC, London, UK., Catalog No. 300-07), and 50 ng/ml TPO (PeproTech EC, London, England, Catalog No. 300-18) at 37° C. under 5% CO2 in humidified air. Floating hematopoietic cells were collected and stained by monoclonal antibodies against PerCP-anti-CD34 (BD pharMingen, San Diego, USA, Catalog No.340430), PE-anti-CD13 (BD pharMingen, San Diego, USA, Catalog No. 30525X) and FlTC-anti-15(BD pharMingen, SanDiego, USA, Catalog No. PM30525X). Five microlitter of each antibody was added to a […] of cell suspension and incubated at 4° C. for 25 min. After washing with PBS containing 10% (v/v) FCS, the expression of CD antigens were detected by using FACSCalibur (Becton Dickinson, Franklin Lakes, N.J., USA) according to the FACSCalibur Traing mannual (FACStation ver1.1. Becton Dickinson, Franklin Lakes, N.J., USA.). […]
# [4] = drug exposure time, 24 hr, then drug removed and cells cultured further, read-out: Cytotoxicity (IC50 in nM) HCT116
# [5] = drug exposure time, 24 hr, then drug removed and cells cultured further, read-out: Cytotoxicity (IC50 in nM) HCT116/S5
# [6] = drug exposure time, 24 hr, then cultured for 6 days without drugs, read-out: Cytotoxicity (IC50 in nM) CFU-GM
Compound,IC50 [3],"IC50 [1, 4]","IC50 [2, 5]","IC50 [3, 6]",also measured
"C=C1C(n2ccc(NC(=O)CC[C@@H](NC(=O)[C@@H](N)Cc3ccc4ccccc4c3)C(=O)O)nc2=O)O[C@H](CO)[C@H]1O (stereo partly drawn) [Example 17, (2R)-((2S)-Amino-3-naphthalen-2-ylpropionylamino)-4-[1-((4S)-hydroxy-(5R)-hydroxymethyl-3-methylenetetrahydrofuran-2-yl)-2-oxo-1,2-dihydropyrimidin-4-ylcarbamoyl]butyric acid]",1.1 nM,–,–,–,IC50 [1]: 0.99 nM; IC50 [2]: 0.098 nM
C=C1C(n2ccc(NC(=O)CC[C@@H](NC(=O)[C@@H](N)Cc3ccc(-c4ccccc4)cc3)C(=O)O)nc2=O)O[C@H](CO)[C@H]1O (stereo partly shown) [Example 16],–,–,–,–,"IC50 ([1]; drug exposure time, 96 hr, read-out: Cytotoxicity (IC50 in nM) HCT116): 1.7 nM; IC50 ([2]; drug exposure time, 96 hr, read-out: Cytotoxicity (IC50 in nM) HCT116/S5): 0.23 nM; IC50 ([3]; drug exposure time, 168 hr (7 days), read-out: Cytotoxicity (IC50 in nM) CFU-GM): 2.8 nM"
"CCc1c2c(nc3ccc(O)cc13)-c1cc3c(c(=O)n1C2)COC(=O)[C@]3(O)CC [SN 38, reference compound]",–,3.7 nM,2.2 nM,1.8 nM,–
"CC[C@@]1(OC(=O)CC[C@@H](NC(=O)[C@H](N)Cc2c[nH]c3ccccc23)C(=O)O)C(=O)OCc2c1cc1n(c2=O)Cc2cc3ccccc3nc2-1 [Example 31, 20-O—[(R)-tryptophyl-γ-(R)-glutamyl]-20(S)-camptothecin hydrochloride]",18200 nM,3 nM,–,–,–
"CCCCCN1C=Nc2cccc3nc4c(c1c23)Cn1c-4cc2c(c1=O)COC(=O)[C@@]2(CC)OC(=O)CC[C@@H](NC(=O)[C@@H](N)CC(C)C)C(=O)O [Example 49-4, (9S)-9-ethyl-9-[(L)-leucyl-(D)-γ-glutamyloxy]-1-pentyl-1H,12H-pyrano[3″,4″:6′,7′]-indolizino[1′,2′:6,5]pyrido[4,3,2-de]quinazoline-10,13(9H,15H)-dione hydrochloride]",–,15 nM,2.1 nM,–,–
"CCCCCN1C=Nc2cccc3nc4c(c1c23)Cn1c-4cc2c(c1=O)COC(=O)[C@@]2(CC)OC(=O)CC[C@H](NC(=O)[C@@H](N)Cc1c[nH]c2ccccc12)C(=O)O [Example 49-1, (9S)-9-ethyl-9-[(L)-tryptophyl-(L)-γ-glutamyloxy]-1-pentyl-1H,12H-pyrano[3″,4″:6′,7′]indolizino[1′,2′:6,5]pyrido[4,3,2-de]quinazoline-10,13(9H,15H)-dione hydrochloride]",–,33 nM,3.3 nM,61 nM,–
"CCCCCN1C=Nc2c3c(nc4cccc1c24)-c1cc2c(c(=O)n1C3)COC(=O)[C@@]2(CC)OC(=O)CC[C@@H](NC(=O)[C@@H](N)CC1CCCCC1)C(=O)O [Example 49-2, (9S)-9-ethyl-9-[(L)-cyclohexylalanyl-(D)-γ-glutamyloxy]-1-pentyl-1H,12H-pyrano[3″,4″:6′,7′]indolizino[1′,2′:6,5]pyrido[4,3,2-de]quinazoline-10,13(9H,15H)-dione hydrochloride]",–,18 nM,2.6 nM,31 nM,–
"CCCCCN1C=Nc2c3c(nc4cccc1c24)-c1cc2c(c(=O)n1C3)COC(=O)[C@@]2(CC)OC(=O)C[C@@H](NC(=O)[C@@H](N)CC1CCCCC1)C(=O)O [Example 49-11, (9S)-9-ethyl-9-[(L)-cyclohexylalanyl-(D)-β-aspartyloxy]-1-pentyl-1H,12H-pyrano[3″,4″:6′,7′]indolizino[1′,2′:6,5]pyrido[4,3,2-de]quinazoline-10,13(9H,15H)-dione hydrochloride]",–,> 50 nM,13 nM,120 nM,–
"CCCCCN1C=Nc2cccc3nc4c(c1c23)Cn1c-4cc2c(c1=O)COC(=O)[C@@]2(CC)OC(=O)CC[C@@H](NC(=O)[C@@H](N)Cc1ccccc1)C(=O)O [Example 49-3, (9S)-9-ethyl-9-[(L)-phenylalanyl-(D)-γ-glutamyloxy]-1-pentyl-1H,12H-pyrano[3″,4″:6′,7′]-indolizino[1′,2′:6,5]pyrido[4,3,2-de]quinazoline-10,13(9H,15H)-dione hydrochloride]",–,> 50 nM,2.9 nM,250 nM,–
"CCc1c2c(nc3ccc(O)cc13)-c1cc3c(c(=O)n1C2)COC(=O)[C@@]3(CC)OC(=O)CC[C@@H](NC(=O)[C@@H](N)Cc1ccccc1)C(=O)O [Example 39, 7-ethyl-10-hydroxy-20-O—[(S)-phenylalanyl-γ-(R)-glutamyl]-20(S)-camptothecin hydrochloride]",20 nM,23 nM,2.8 nM,–,–
